Results reported in ChEMBL document CHEMBL1201862, “PubChem BioAssay data set” (2004).
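Five compound concentrations were applied to cells in 96-well plates for 48 hours; endpoints were derived by simple linear interpolation of the resulting dose-response curve. GI50 marks 50% less growth.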 Activity calls are given as the source filed them. Rule as the data show it: active = GI50 up to about 1.1 µM and inactive = higher.

Assays:
Experiment in all cases: NCI-60 cell line screen, 48 h
786-0 = system: 786-0
A498 = system: A498
A549 = system: A549
ACHN = system: ACHN
BT-549 = system: BT-549
CAKI-1 = system: CAKI-1
CCRF-CEM = system: CCRF-CEM
COLO 205 = system: COLO 205
DU-145 = system: DU-145
EKVX = system: EKVX
HCC 2998 = system: HCC 2998
HCT-116 = system: HCT-116
HCT-15 = system: HCT-15
HL-60 = system: HL-60
HOP-62 = system: HOP-62
HOP-92 = system: HOP-92
HT-29 = system: HT-29
Hs-578T = system: Hs-578T
IGROV-1 = system: IGROV-1
K562 = system: K562
KM12 = system: KM12
LOX IMVI = system: LOX IMVI
M14 = system: M14
MCF7 = system: MCF7
MDA-MB-231 = system: MDA-MB-231
MDA-MB-435 = system: MDA-MB-435
MDA-N = system: MDA-N
MOLT-4 = system: MOLT-4
Malme-3M = system: Malme-3M
NCI-H226 = system: NCI-H226
NCI-H23 = system: NCI-H23
NCI-H460 = system: NCI-H460
NCI-H522 = system: NCI-H522
NCI/ADR-RES = system: NCI/ADR-RES
OVCAR-3 = system: OVCAR-3
OVCAR-4 = system: OVCAR-4
OVCAR-5 = system: OVCAR-5
OVCAR-8 = system: OVCAR-8
PC-3 = system: PC-3
RPMI-8226 = system: RPMI-8226
RXF 393 = system: RXF 393
SF-268 = system: SF-268
SF-295 = system: SF-295
SF-539 = system: SF-539
SK-MEL-28 = system: SK-MEL-28
SK-MEL-2 = system: SK-MEL-2
SK-MEL-5 = system: SK-MEL-5
SK-OV-3 = system: SK-OV-3
SN12C = system: SN12C
SNB-19 = system: SNB-19
SNB-75 = system: SNB-75
SR = system: SR
SW-620 = system: SW-620
T47D = system: T47D
TK-10 = system: TK-10
U-251 = system: U-251
UACC-257 = system: UACC-257
UACC-62 = system: UACC-62
UO-31 = system: UO-31

COC(=O)C1(Cc2ccccc2)Cc2ccc3c(c2C1=O)CCC3 (stereo not drawn)
GI50 (786-0): 33.7 µM (inactive)
GI50 (A498): 35.4 µM (inactive)
GI50 (A549): 46.3 µM (inactive)
GI50 (ACHN): 51.4 µM (inactive)
GI50 (BT-549): 2.24 µM (inactive)
GI50 (CAKI-1): 9.73 µM (inactive)
GI50 (CCRF-CEM): 26.9 µM (inactive)
GI50 (COLO 205): 27.8 µM (inactive)
GI50 (DU-145): > 75.3 µM (inactive)
GI50 (EKVX): 13.1 µM (inactive)
GI50 (HCC 2998): 38.1 µM (inactive)
GI50 (HCT-116): 30.5 µM (inactive)
GI50 (HCT-15): 35 µM
GI50 (HL-60): 20.3 µM (inactive)
GI50 (HOP-62): > 74.6 µM (inactive)
GI50 (HOP-92): 20.8 µM (inactive)
GI50 (HT-29): 29 µM (inactive)
GI50 (Hs-578T): 3.95 µM (inactive)
GI50 (IGROV-1): > 72.9 µM (inactive)
GI50 (K562): 30.6 µM (inactive)
GI50 (KM12): 31.8 µM (inactive)
GI50 (LOX IMVI): 39.3 µM (inactive)
GI50 (M14): 25.1 µM (inactive)
GI50 (MCF7): 23.1 µM (inactive)
GI50 (MDA-MB-231): 33.4 µM (inactive)
GI50 (MDA-MB-435): 24.9 µM (inactive)
GI50 (MDA-N): 26.2 µM (inactive)
GI50 (MOLT-4): 20.6 µM (inactive)
GI50 (Malme-3M): 14.2 µM (inactive)
GI50 (NCI-H226): > 55.6 µM (inactive)
GI50 (NCI-H23): 32.2 µM (inactive)
GI50 (NCI-H460): 60.8 µM (inactive)
GI50 (NCI-H522): 20.8 µM (inactive)
GI50 (NCI/ADR-RES): 23.7 µM (inactive)
GI50 (OVCAR-3): > 49 µM (inactive)
GI50 (OVCAR-4): > 29.9 µM (inactive)
GI50 (OVCAR-5): > 63 µM (inactive)
GI50 (OVCAR-8): 59.6 µM (inactive)
GI50 (PC-3): 26.1 µM (inactive)
GI50 (RPMI-8226): 25.4 µM (inactive)
GI50 (RXF 393): 20.4 µM (inactive)
GI50 (SF-268): > 66.5 µM (inactive)
GI50 (SF-295): > 46.2 µM (inactive)
GI50 (SF-539): > 48.9 µM (inactive)
GI50 (SK-MEL-28): > 70.6 µM (inactive)
GI50 (SK-MEL-2): 18.1 µM (inactive)
GI50 (SK-MEL-5): 18.5 µM (inactive)
GI50 (SK-OV-3): > 80.4 µM (inactive)
GI50 (SN12C): 44.4 µM (inactive)
GI50 (SNB-19): 55.2 µM (inactive)
GI50 (SNB-75): 22.6 µM (inactive)
GI50 (SR): 28.7 µM (inactive)
GI50 (SW-620): > 60.4 µM (inactive)
GI50 (T47D): 11.5 µM (inactive)
GI50 (TK-10): > 47.5 µM (inactive)
GI50 (U-251): 36.1 µM (inactive)
GI50 (UACC-257): 35.2 µM (inactive)
GI50 (UACC-62): > 36.7 µM (inactive)
GI50 (UO-31): 18 µM (inactive)

O=C1C(S(=O)(=O)c2ccccc2)=C(CS(=O)(=O)c2ccccc2)[C@@H](OCc2ccccc2)[C@@H]1OCc1ccccc1
GI50 (786-0): 26.4 µM (inactive)
GI50 (A498): 23.3 µM (inactive)
GI50 (A549): 27.7 µM (inactive)
GI50 (ACHN): 31.8 µM (inactive)
GI50 (BT-549): 13.5 µM (inactive)
GI50 (CAKI-1): 30.1 µM (inactive)
GI50 (CCRF-CEM): 14 µM (inactive)
GI50 (COLO 205): 25.8 µM (inactive)
GI50 (DU-145): 35.2 µM (inactive)
GI50 (EKVX): 27.2 µM (inactive)
GI50 (HCC 2998): 18.9 µM (inactive)
GI50 (HCT-116): 13.6 µM (inactive)
GI50 (HCT-15): 18.2 µM
GI50 (HL-60): 17.1 µM (inactive)
GI50 (HOP-62): 19 µM (inactive)
GI50 (HOP-92): 12.4 µM (inactive)
GI50 (HT-29): 13.5 µM (inactive)
GI50 (Hs-578T): 23 µM (inactive)
GI50 (IGROV-1): 17.1 µM (inactive)
GI50 (K562): 14.4 µM (inactive)
GI50 (KM12): 0.0519 µM (active)
GI50 (LOX IMVI): 15.8 µM (inactive)
GI50 (M14): 15.7 µM (inactive)
GI50 (MCF7): 27.4 µM (inactive)
GI50 (MDA-MB-231): 23.9 µM (inactive)
GI50 (MDA-MB-435): 26.9 µM (inactive)
GI50 (MDA-N): 23 µM (inactive)
GI50 (MOLT-4): 16.9 µM (inactive)
GI50 (Malme-3M): 17.6 µM (inactive)
GI50 (NCI-H226): 17.6 µM (inactive)
GI50 (NCI-H23): 16.9 µM (inactive)
GI50 (NCI-H460): 21 µM (inactive)
GI50 (NCI-H522): 16 µM (inactive)
GI50 (NCI/ADR-RES): 20.7 µM (inactive)
GI50 (OVCAR-3): 12.5 µM (inactive)
GI50 (OVCAR-4): 20.7 µM (inactive)
GI50 (OVCAR-5): 27.9 µM (inactive)
GI50 (OVCAR-8): 18.5 µM (inactive)
GI50 (PC-3): 25.8 µM (inactive)
GI50 (RPMI-8226): 11.6 µM (inactive)
GI50 (RXF 393): 13.9 µM (inactive)
GI50 (SF-268): 29.9 µM (inactive)
GI50 (SF-295): 18.7 µM (inactive)
GI50 (SF-539): 19.2 µM (inactive)
GI50 (SK-MEL-28): 18.1 µM (inactive)
GI50 (SK-MEL-2): 16.2 µM (inactive)
GI50 (SK-MEL-5): 18.2 µM (inactive)
GI50 (SK-OV-3): 41.5 µM (inactive)
GI50 (SN12C): 22.3 µM (inactive)
GI50 (SNB-19): 34.3 µM (inactive)
GI50 (SNB-75): > 100 µM (inactive)
GI50 (SR): 14.5 µM (inactive)
GI50 (SW-620): 18.7 µM (inactive)
GI50 (T47D): 32.7 µM (inactive)
GI50 (TK-10): 31.8 µM (inactive)
GI50 (U-251): 19.6 µM (inactive)
GI50 (UACC-257): 21.6 µM (inactive)
GI50 (UACC-62): 17.3 µM (inactive)
GI50 (UO-31): 18.5 µM (inactive)
